According to US20150141336A1, “Pancreatic Peptide Compounds and Use” (Novo Nordisk A/S, priority 2012, published 2015):
Numbered stars: 1 amine (or outer) side, 2 acyl side, 3 side chain; on linkers, the order of the positions; unused ones are H or OH. Side chains are listed from the residue outwards. Peptide text beside a SMILES is read from it. * marks the point of attachment. C18 diacid = O=C(O)CCCCCCCCCCCCCCCCC(=O)*; γGlu = O=C(O)[C@H](CCC(=O)[*:2])N[*:1]; AEEA = NCCOCCOCC(=O)O

Test: Assay (II) PK i.v. minipig, in vivo half-life
Set-up: species or system Göttingen mini-pigs
Conditions: male, Göttingen, minipig, iv, Half-life minipig, Assay (II)
Method: An assay useful for measuring the pharmacokinetic (PK) profile of the PP peptide is the following mini-pig PK assay.
Five male Göttingen mini-pigs weighing approximately 18 to 22 kg from Ellegaard Göttingen Minipigs NS, Denmark are included in the study. The mini-pigs have two central venous catheters inserted which are used for intra venous (i.v.) dosing and blood sampling. The test compound is dissolved in 50 mM K2HPO4, 0.05% tween 80, pH=8.0 to a concentration of 180 nmol/ml. For comparison a control compound, such as human PP(1-36), may be administered. The pigs are dosed with 6 nmol test compound/kg body weight. Blood samples are taken at the following time points: pre-dose, 30 minutes, 1, 2, 4, 8, 24, 48, 72, 96, 120, 168 and 240 hours post dosing. The blood samples were collected into test tubes containing EDTA buffer for stabilization and kept on ice for max. 20 minutes before centrifugation. The centrifugation procedure to separate plasma may be: 4° C., approx. 2500 g for 10 minutes. Plasma is collected and immediately transferred to Micronic tubes stored at −20° C. until assayed.
The test compounds were assayed in plasma by Turbulent Flow Chromatography coupled to Liquid Chromatography with subsequent Tandem Mass Spectrometric Detection (TFC/LC/MS/MS). Positive mode ionization and Multiple Reaction Monitoring (MRM) of a multiple protonated species fragmented to a singly charged ion was employed for selectivity. The selectivity of the method allows multiple compounds to be quantified in one sample.
The concentrations of the test compound in samples of unknown concentration were calculated using the peak area as a function of amount. Calibration graphs based on plasma samples spiked with the analyte were constructed by regression analysis. Typical dynamic range for standard assay was 1-2000 nmol/I. The method performance was assured by co-assaying quality control (QC) samples in duplicate at three concentration levels.
Stock and working solutions of analytes were prepared in plasma and incubated by 37° C. for 1 hour.
Sample Preparation: 40.0 μl EDTA-plasma was added 160 μl 50% methanol, 1% formic acid, then vortexed and centrifuged at 16457 g at 4° C. for 20 minutes. The supernatant was transferred to a 96 well plate, plates incubated with 0.4% BSA, 37° C. for ½ hour. Injection volume was 25 μl.
The analysis was carried out on a Sciex API 3000 mass spectrometer (MDS/Sciex, Concord, ON, Canada) using a TurbolonSpray interface. The TFC/LC system consisted of two Flux Rheos 2000 quaternary pumps, a Cohesive VIM module (Cohesive Technologies, Franklin, Mass., USA) and a CTC LC/PAL auto sampler (CTC Analytics, Zingen, Switzerland). The centrifuge employed was a HettichMikro 22R (A. Hettich, Tuttlingen, Germany). For sample clean up a TurboFlow C8 column (0.5×50 mm) (Cohesive Technologies/Thermofisher) was used and the LC separation was done on a Proteo 4 μm column (2.0×50 mm) (Phenomenex, Torrance, Calif., USA). Eluents were isocratic and gradient combinations of methanol, acetonitril, Milli-Q water and formic acid.
Non-compartmental analysis (NCA): Plasma concentration-time profiles are analyzed by non-compartmental pharmacokinetics analysis (NCA) using WinNonlin Professional 5.0 (Pharsight Inc., Mountain View, Calif., USA). NCA is performed using the individual plasma concentration-time profiles from each animal.

Row | half-life [h] | SMILES
1 | 52 | CC[C@H](C)[C@H](NC(=O)[C@H](Cc1ccc(O)cc1)NC(=O)[C@H](CCCNC(=N)N)NC(=O)[C@H](CCCNC(=N)N)NC(=O)[C@H](CC(C)C)NC(=O)[C@H](CC(=O)O)NC(=O)[C@H](C)NC(=O)[C@H](C)NC(=O)[C@H](Cc1ccc(O)cc1)NC(=O)[C@H](CCC(N)=O)NC(=O)[C@H](C)NC(=O)[C@H](CCSC)NC(=O)[C@H](CCC(N)=O)NC(=O)[C@H](CCC(=O)O)NC(=O)[C@@H]1CCCN1C(=O)[C@@H](NC(=O)[C@H](C)NC(=O)[C@H](CC(N)=O)NC(=O)[C@H](CC(=O)O)NC(=O)CNC(=O)[C@@H]1CCCN1C(=O)[C@H](Cc1ccc(O)cc1)NC(=O)[C@@H](NC(=O)[C@@H]1CCCN1C(=O)[C@H](CCCCNC(=O)COCCOCCNC(=O)COCCOCCNC(=O)CC[C@H](NC(=O)CCCCCCCCCCCCCCCCC(=O)O)C(=O)O)NC(=O)[C@@H](N)CC(C)C)C(C)C)[C@@H](C)O)C(=O)N[C@@H](CC(N)=O)C(=O)N[C@@H](CCSC)C(=O)N[C@@H](CC(C)C)C(=O)N[C@H](C(=O)N[C@@H](CCCNC(=N)N)C(=O)N1CCC[C@H]1C(=O)N[C@@H](CCCNC(=N)N)C(=O)N[C@@H](Cc1ccc(O)cc1)C(N)=O)[C@@H](C)O [BL]
2 | 17 | CC[C@H](C)[C@H](NC(=O)[C@H](Cc1ccc(O)cc1)NC(=O)[C@H](CCCNC(=N)N)NC(=O)[C@H](CCCNC(=N)N)NC(=O)[C@H](CC(C)C)NC(=O)[C@H](CC(=O)O)NC(=O)[C@H](C)NC(=O)[C@H](C)NC(=O)[C@H](Cc1ccc(O)cc1)NC(=O)[C@H](CCC(N)=O)NC(=O)[C@H](C)NC(=O)[C@H](CCSC)NC(=O)[C@H](CCC(N)=O)NC(=O)[C@H](CCC(=O)O)NC(=O)[C@@H]1CCCN1C(=O)[C@@H](NC(=O)[C@H](C)NC(=O)[C@H](CC(N)=O)NC(=O)[C@H](CC(=O)O)NC(=O)CNC(=O)[C@@H]1CCCN1C(=O)[C@H](CCCCNC(=O)COCCOCCNC(=O)COCCOCCNC(=O)CC[C@H](NC(=O)CCCCCCCCCCCCCCCCC(=O)O)C(=O)O)NC(=O)[C@@H](NC(=O)[C@@H]1CCCN1C(=O)[C@H](CCC(=O)O)NC(=O)[C@H](CC(C)C)NC(=O)[C@@H]1CCCN1)C(C)C)[C@@H](C)O)C(=O)N[C@@H](CC(N)=O)C(=O)N[C@@H](CCSC)C(=O)N[C@@H](CC(C)C)C(=O)N[C@H](C(=O)N[C@@H](CCCNC(=N)N)C(=O)N1CCC[C@H]1C(=O)N[C@@H](CCCNC(=N)N)C(=O)N[C@@H](Cc1ccc(O)cc1)C(N)=O)[C@@H](C)O [Compound AA]
3 | 11 | CC[C@H](C)[C@H](NC(=O)[C@H](Cc1ccc(O)cc1)NC(=O)[C@H](CCCNC(=N)N)NC(=O)[C@H](CCCNC(=N)N)NC(=O)[C@H](CC(C)C)NC(=O)[C@H](CC(=O)O)NC(=O)[C@H](C)NC(=O)[C@H](C)NC(=O)[C@H](Cc1ccc(O)cc1)NC(=O)[C@H](CCC(N)=O)NC(=O)[C@H](C)NC(=O)[C@H](CCSC)NC(=O)[C@H](CCC(N)=O)NC(=O)[C@H](CCC(=O)O)NC(=O)[C@@H]1CCCN1C(=O)[C@@H](NC(=O)[C@H](C)NC(=O)[C@H](CC(N)=O)NC(=O)[C@H](CC(=O)O)NC(=O)CNC(=O)[C@@H]1CCCN1C(=O)[C@H](Cc1ccc(O)cc1)NC(=O)[C@@H](NC(=O)[C@H](CCCCNC(=O)COCCOCCNC(=O)COCCOCCNC(=O)CC[C@H](NC(=O)CCCCCCCCCCCCCCCCC(=O)O)C(=O)O)NC(=O)[C@H](CCC(=O)O)NC(=O)[C@H](CC(C)C)NC(=O)[C@@H]1CCCN1)C(C)C)[C@@H](C)O)C(=O)N[C@@H](CC(N)=O)C(=O)N[C@@H](CCSC)C(=O)N[C@@H](CC(C)C)C(=O)N[C@H](C(=O)N[C@@H](CCCNC(=N)N)C(=O)N1CCC[C@H]1C(=O)N[C@@H](CCCNC(=N)N)C(=O)N[C@@H](Cc1ccc(O)cc1)C(N)=O)[C@@H](C)O [Compound AC]

The remaining lines, values behind:

Row | SMILES | half-life [h]
4 | CC[C@H](C)[C@H](NC(=O)[C@H](Cc1ccc(O)cc1)NC(=O)[C@H](CCCNC(=N)N)NC(=O)[C@H](CCCNC(=N)N)NC(=O)[C@H](CC(C)C)NC(=O)[C@H](CC(=O)O)NC(=O)[C@H](C)NC(=O)[C@H](C)NC(=O)[C@H](Cc1ccc(O)cc1)NC(=O)[C@H](CCC(N)=O)NC(=O)[C@H](C)NC(=O)[C@H](CCSC)NC(=O)[C@H](CCC(N)=O)NC(=O)[C@H](CCC(=O)O)NC(=O)[C@@H]1CCCN1C(=O)[C@@H](NC(=O)[C@H](C)NC(=O)[C@H](CC(N)=O)NC(=O)[C@H](CC(=O)O)NC(=O)CNC(=O)[C@@H]1CCCN1C(=O)[C@H](Cc1ccc(O)cc1)NC(=O)[C@@H](NC(=O)[C@@H]1CCCN1C(=O)[C@H](CCC(=O)O)NC(=O)[C@@H](N)CC(C)C)C(C)C)[C@@H](C)O)C(=O)N[C@@H](CC(N)=O)C(=O)N[C@@H](CCSC)C(=O)N[C@@H](CC(C)C)C(=O)N[C@H](C(=O)N[C@@H](CCCCNC(=O)COCCOCCNC(=O)COCCOCCNC(=O)CC[C@H](NC(=O)CCCCCCCCCCCCCCCCC(=O)O)C(=O)O)C(=O)N1CCC[C@H]1C(=O)N[C@@H](CCCNC(=N)N)C(=O)N[C@@H](Cc1ccc(O)cc1)C(N)=O)[C@@H](C)O [AI] (H-LEPVYPGDNATPEQMAQYAADLRRYINMLTK([AEEA-AEEA-γGlu-C18 diacid])PRY-NH2; N-terminus and C-terminus assumed) | 45
5 | CC[C@H](C)[C@H](NC(=O)[C@H](Cc1ccc(O)cc1)NC(=O)[C@H](CCCNC(=N)N)NC(=O)[C@H](CCCNC(=N)N)NC(=O)[C@H](CC(C)C)NC(=O)[C@H](CC(=O)O)NC(=O)[C@H](C)NC(=O)[C@H](C)NC(=O)[C@H](Cc1ccc(O)cc1)NC(=O)[C@H](CCC(N)=O)NC(=O)[C@H](C)NC(=O)[C@H](CCSC)NC(=O)[C@H](CCC(N)=O)NC(=O)[C@H](CCC(=O)O)NC(=O)[C@@H]1CCCN1C(=O)[C@@H](NC(=O)[C@H](C)NC(=O)[C@H](CC(N)=O)NC(=O)[C@H](CC(=O)O)NC(=O)CNC(=O)[C@@H]1CCCN1C(=O)[C@H](Cc1ccc(O)cc1)NC(=O)[C@H](CCCCNC(=O)COCCOCCNC(=O)COCCOCCNC(=O)CC[C@H](NC(=O)CCCCCCCCCCCCCCCCC(=O)O)C(=O)O)NC(=O)[C@@H]1CCCN1C(=O)[C@H](CCC(=O)O)NC(=O)[C@H](CC(C)C)NC(=O)[C@@H]1CCCN1)[C@@H](C)O)C(=O)N[C@@H](CC(N)=O)C(=O)N[C@@H](CCSC)C(=O)N[C@@H](CC(C)C)C(=O)N[C@H](C(=O)N[C@@H](CCCNC(=N)N)C(=O)N1CCC[C@H]1C(=O)N[C@@H](CCCNC(=N)N)C(=O)N[C@@H](Cc1ccc(O)cc1)C(N)=O)[C@@H](C)O [Compound AB] | 44
6 | CC[C@H](C)[C@H](NC(=O)[C@H](Cc1ccc(O)cc1)NC(=O)[C@H](CCCNC(=N)N)NC(=O)[C@H](CCCNC(=N)N)NC(=O)[C@H](CC(C)C)NC(=O)[C@H](CC(=O)O)NC(=O)[C@H](C)NC(=O)[C@H](C)NC(=O)[C@H](Cc1ccc(O)cc1)NC(=O)[C@H](CCC(N)=O)NC(=O)[C@H](C)NC(=O)[C@H](CCSC)NC(=O)[C@H](CCC(N)=O)NC(=O)[C@H](CCC(=O)O)NC(=O)[C@@H]1CCCN1C(=O)[C@@H](NC(=O)[C@H](C)NC(=O)[C@H](CC(N)=O)NC(=O)[C@H](CC(=O)O)NC(=O)CNC(=O)[C@@H]1CCCN1C(=O)[C@H](Cc1ccc(O)cc1)NC(=O)[C@@H](NC(=O)[C@@H]1CCCN1C(=O)[C@H](CCCCNC(=O)COCCOCCNC(=O)COCCOCCNC(=O)CC[C@H](NC(=O)CCCCCCCCCCCCCCCCC(=O)O)C(=O)O)NC(=O)[C@H](CC(C)C)NC(=O)[C@@H]1CCCN1)C(C)C)[C@@H](C)O)C(=O)N[C@@H](CC(N)=O)C(=O)N[C@@H](CCSC)C(=O)N[C@@H](CC(C)C)C(=O)N[C@H](C(=O)N[C@@H](CCCNC(=N)N)C(=O)N1CCC[C@H]1C(=O)N[C@@H](CCCNC(=N)N)C(=O)N[C@@H](Cc1ccc(O)cc1)C(N)=O)[C@@H](C)O [Compound AD] | 52
